Data taken from paper PMC11505670, “Four newly synthesized enones induce mitochondrial-mediated apoptosis and G2/M cell cycle arrest in colorectal and cervical cancer cells” (RSC Advances, 2024).

Legend:
Format in all cases: cell-based, human
[1] = system: Bax and Bcl-2 in HCT-116 cells; experiment: Flow cytometric analysis of Bax and Bcl-2 expression, HCT-116; conditions: HCT-116, IC50 concentration, 48 h, from MFI
Procedure: (§1) Cells were washed with PBS, fixed, permeabilized using Fixation and Permeabilization Kit (eBioscience), and stained separately for Bcl-2, Bax, and cleaved-caspase-3.[8,9] Permeabilized cells were incubated with primary antibodies: mouse anti-human-Bcl-2 (DC21, sc-783, Santa Cruz Biotech. Inc.), mouse anti-human Bax (N20, sc-493, Santa Cruz Biotech. Inc.), and anti-cleaved caspase-3 (Cell signaling Technology 9661). Following antibody incubation, cells were washed and incubated with secondary Alexa 488-conjugated antibodies (ab185015, Abcam, United Kingdom) for 30 minutes. After an additional wash with PBS, flow cytometry analysis was performed.
(§2) Data were analyzed using FlowJo Software. The expression of Bcl-2 and Bax proteins was quantified as mean fluorescence intensity (MFI). The results were presented with bar graphs. Bax/Bcl-2 index was calculated using the formula […]. The percentage of cells expressing active caspase-3 (MFI) was presented in histograms.

HeLa cells [2] = experiment: MTT cytotoxicity assay, HeLa; conditions: for Selectivity index (SI): IC50 healthy cells (MRC-5)/IC50 tumor cells; for Cytotoxicity range: concentration range 1–100 μM; for IC50: Homo sapiens, MTT
Procedure: (§3) To examine and compare the antiproliferative activities of four enones, the cytotoxicity of the compounds was assessed by the 3-(4,5-dimethylthiazol-2-yl)-2,5-diphenyltetrazolium bromide (MTT) assay[9] in, colon cancer cells (HCT-116), cervical cancer cell line (HeLa) and human fibroblast lung cell line (MRC-5) that was used as a healthy control cell line. After trypsinization, seeded (5 × 10^3 cells per well in 96-well plates) cells were treated with different concentrations of the investigated enones (1, 3, 10, 30, and 100 μM) during 48 and 72 h period incubation period +37 °C and 5–6.5% CO2. After the incubation period, the medium was removed and MTT solution (5 mg ml^−1) was added to the wells.
(§4) After a 3 hour incubation with the MTT solution, the resulting formazan crystals were dissolved in DMSO (67-68-5, Merck). Absorbance was subsequently measured at 595 nm using a microplate reader (Zenith 3100, Anthos Labtech Instruments). The percentage of cytotoxic cells was determined using the formula: cytotoxicity (%) = (1 − (exp. group (ABS))/(control group (ABS)) × 100). IC50 values were calculated using GraphPad Prism 10 software. The selectivity index (SI) was determined using the formula: SI?IC50 value for healthy cells/IC50 value for tumor cells.[9]

[3] = system: mitochondrial membrane potential (ΔΨm) in HeLa cells; experiment: Mitochondrial membrane potential (ΔΨm) JC-10 analysis, HeLa; conditions: IC50 concentration, 48 h
Procedure: (§5) Changes in the ΔΨm caused by 48 hours of enones treatment, were assessed using JC-10 dye.[10]. (Enzo Life Sciences, Farmingdale, NY, USA).
(§6) In healthy cells, JC-10 dye accumulates in the mitochondria as red fluorescent aggregates. However, upon cell damage, changes in ΔΨm occur and result in dislocation of JC-10 from the mitochondria to the cytosol and the monomerization of aggregates, shifting fluorescence from red to green. Cells were cultured in 24-well plate (3 × 10^4 cells per well) overnight in the incubator (5% CO2, 37 °C). […] Following treatment, cells were washed with warm 1xPBS and incubated with JC-10 dye (2.5 μM in warm PBS) at 5% CO2, 37 °C for 20 minutes. Cells were then washed with 1xPBS and observed using an Olympus IX50 inverted fluorescence microscope. Images were captured and analyzed using ImageJ software. The ratio of fluorescence emissions at 525 and 590 nm was used for quantification analysis.

[4] = system: Bax and Bcl-2 in HeLa cells; experiment: Flow cytometric analysis of Bax and Bcl-2 expression, HeLa; conditions: IC50 concentration, 48 h, from MFI
Procedure: as §1, §2

HCT-116 cells [5] = experiment: Cell cycle analysis (PI, flow cytometry), HCT-116; conditions: IC50 concentration, 48 h; control 27.4%
Procedure: (§7) After treatment of HCT-116 and HeLa cells with enones, cells were harvested, washed with PBS, and fixed in 70% ice-cold ethanol at +4 °C overnight.[10] The cells were then pelleted, resuspended in 1 ml PBS containing RNAse A (12091021, Sigma Aldrich), and incubated for 30 min at 37 °C. A staining solution containing propidium iodide (1 mg PI per ml PBS) (B7758, Biotrend) was added to cells, followed by 15 min incubation in the dark. Cells were analyzed by flow cytometer Cytomics FC500. DNA content was determined using Flowing Software and cell cycle distribution was presented by graph (histograms).

MRC-5 cells = experiment: MTT cytotoxicity assay, MRC-5 healthy control cells; conditions: Homo sapiens
Procedure: as §3, §4

[6] = system: cytochrome c in HCT-116 cells; experiment: Cytochrome c localization by immunofluorescence, HCT-116; conditions: IC50 concentration, 48 h
Procedure: After 48 hours of treatment, immunofluorescence analysis of cytochrome c distribution and expression in treated cells was performed using glass coverslips.[10] Following the treatment, cells were washed with PBS, fixed in 4% formaldehyde for 20 min, and permeabilized with 0.2% Tween-20. Blocking was performed using a buffer containing 0.1% Tween-20 and 10% FBS for 30 min. The cells were then incubated for 1 hour at room temperature with a monoclonal mouse anti-human cytochrome c antibody (1:100, G7421, Promega, USA,)
Subsequently, the cells were incubated for 30 minutes with a goat anti-mouse FITC (1:200, diluted in blocking buffer), washed, and images were acquired using an inverted fluorescence microscope (Olympus IX50). Image analysis was performed using ImageJ software.

HeLa cells [7] = experiment: Cell cycle analysis (PI, flow cytometry), HeLa; conditions: IC50 concentration, 48 h; control 29.9%
Procedure: as §7

[8] = system: active caspase-3 in HeLa cells; experiment: Flow cytometric analysis of active caspase-3, HeLa; conditions: IC50 concentration, 48 h, vs control
Procedure: as §1, §2

HCT-116 cells [9] = experiment: MTT cytotoxicity assay, HCT-116; conditions: for Cytotoxicity range: concentration range 1–100 μM; for Selectivity index (SI): IC50 healthy cells (MRC-5)/IC50 tumor cells; for IC50: Homo sapiens, MTT
Procedure: as §3, §4

[10] = system: mitochondrial membrane potential (ΔΨm) in HCT-116 cells; experiment: Mitochondrial membrane potential (ΔΨm) JC-10 analysis, HCT-116; conditions: IC50 concentration, 48 h
Procedure: as §5, §6

[11] = system: active caspase-3 in HCT-116 cells; experiment: Flow cytometric analysis of active caspase-3, HCT-116; conditions: IC50 concentration, 48 h, vs control
Procedure: as §1, §2

HCT-116 cells [12] = experiment: Annexin V-FITC/7-AAD apoptosis flow cytometry, HCT-116; conditions: IC50 concentration, 48 h
Procedure: (§8) The type of cell death was assessed using flow cytometry using FITC Annexin V Apoptosis Detection Kit with 7-AAD (640922, Bio legend).[8] […] After treatment, cells were harvested, washed with PBS (resuspended in 100 μl of ice-cold 1X binding buffer), stained (20 μl of 7-AAD and 10 μl of Annexin V-FITC), and incubated in the dark for 15 min at +4 °C. After incubation, 400 μl of binding buffer was added and the samples were analyzed using flow cytometer Cytomics FC500 (Beckman Coulter, USA). Data analysis was performed using FlowJo Software and presented with histogram and dot plots.

HeLa cells [13] = experiment: Annexin V-FITC/7-AAD apoptosis flow cytometry, HeLa; conditions: IC50 concentration, 48 h
Procedure: as §8

COc1cc(/C=C/C(=O)C2CC2)ccc1OCC(=O)O [E4, (E)-2-(4-(3-Cyclopropyl-3-oxoprop-1-en-1-yl)-2-methoxyphenoxy)acetic acid]
Bax/Bcl-2 ratio [1]: 1.4 | Selectivity index (SI) (HeLa cells [2]; 48 h): 4.97 | Cytotoxicity range (HeLa cells [2]; 48 h): 12.12–60.72% | Selectivity index (SI) (HeLa cells [2]; 72 h): 19.41 | Cytotoxicity range (HeLa cells [2]; 72 h): 42.39–59.81% | IC50 (HeLa cells [2]; 48 h): 20.1 ± 1.19 µM | IC50 (HeLa cells [2]; 72 h): 4.12 ± 0.08 µM | JC10-green/JC10 red ratio in HeLa cells [3]: 1.2 | Bax/Bcl-2 ratio [4]: 1 | % OF HCT-116 CELLS, G2/M (HCT-116 cells [5]): 41.4% | IC50 (MRC-5 cells; MRC5, MRC-5, 48 h): > 100 µM | IC50 (MRC-5 cells; MRC5, MRC-5, 72 h): > 80 µM | RELATIVE RATIO OF CYTOSOL CYTC TO MITOCHONDRIAL CYT C IN HCT-116 CELLS [6]: 0.9 | % OF HELA CELLS, G2/M (HeLa cells [7]): 61.9% | MFI of active caspase-3 in HeLa (fold change) [8]: 1.6 fold change | Cytotoxicity range (HCT-116 cells [9]; HCT-116, 48 h): 39.29–68.45% | Selectivity index (SI) (HCT-116 cells [9]; HCT-116, 48 h): 10.62 | Cytotoxicity range (HCT-116 cells [9]; HCT-116, 72 h): 65.85–71.44% | Selectivity index (SI) (HCT-116 cells [9]; HCT-116, 72 h): 40.00 | IC50 (HCT-116 cells [9]; HCT-116, 48 h): 9.42 ± 1.78 µM | IC50 (HCT-116 cells [9]; HCT-116, 72 h): 2 ± 0.01 µM | JC10-green/JC10 red ratio in HCT-116 cells [10]: 1.4 | MFI of active caspase-3 in HCT-116 (fold change) [11]: 1.9 fold change | increase of percentage of apoptotic HCT-116 cells compared to control HCT-116 cells (HCT-116 cells [12]): 6.7 fold | percentage of total apoptotic HCT-116 cells (sum of early and late) (HCT-116 cells [12]): 47.23% | total percentage of apoptotic HeLa cells (HeLa cells [13]): 33.18%
